How the values were obtained:
Assay type in all cases: binding
[1] = target: T1, OaPAC (photoactivated adenylate cyclase) (Oxynema acuminatum, UniProt K9TLZ5); assay: steady-state fluorescence anisotropy; stopped-flow fluorescence (KD […]); parameters: gene Oscil6304_3613; Full-length OaPAC (366 aa, homodimer)
T1 sequence (K9TLZ5 1-366): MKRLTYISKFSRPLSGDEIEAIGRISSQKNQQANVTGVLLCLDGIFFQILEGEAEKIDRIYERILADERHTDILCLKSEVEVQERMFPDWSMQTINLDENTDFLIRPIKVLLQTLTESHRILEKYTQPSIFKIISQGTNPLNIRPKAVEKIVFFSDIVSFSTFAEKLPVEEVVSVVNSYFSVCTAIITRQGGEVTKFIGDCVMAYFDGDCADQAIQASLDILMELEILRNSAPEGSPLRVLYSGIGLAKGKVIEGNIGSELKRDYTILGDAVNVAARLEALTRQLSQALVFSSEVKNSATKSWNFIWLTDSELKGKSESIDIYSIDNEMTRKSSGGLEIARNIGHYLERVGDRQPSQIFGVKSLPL

[2] = target: T1, OaPAC (photoactivated adenylate cyclase); assay: ITC (also nanoDSF, SAXS titration, CD); parameters: gene Oscil6304_3613; Full-length OaPAC (366 aa, homodimer), dark-adapted state
[3] = target: T1, OaPAC (photoactivated adenylate cyclase); assay: ITC (also nanoDSF, DSC, flavin-emission thermal shift, SAXS); parameters: gene Oscil6304_3613; Full-length OaPAC (366 aa, homodimer), dark-adapted state

## CNc1ccccc1C(=O)O[C@H]1[C@@H](O)[C@H](n2cnc3c(N)ncnc32)O[C@@H]1CO[P@@](=O)(O)O[P@](=O)(O)OP(=O)(O)O [mantATP]
[1]
  Kd: 2.25 ± 0.4 µM

## Nc1ncnc2c1ncn2[C@@H]1O[C@H](COP(=O)(O)OP(=O)(O)OP(=O)(O)O)[C@@H](O)[C@H]1O [ATP]
[2]
  Kd: 3.24 ± 1.9 µM

## Nc1ncnc2c1ncn2[C@@H]1O[C@H](COP(=O)(O)CP(=O)(O)OP(=O)(O)O)[C@@H](O)[C@H]1O [ApCpp, Adenosine-5’-[(α,β)-methyleno]triphosphate]
[3]
  Kd: 5.92 ± 5.06 µM
